Data as given in patent US20120245229A1, “METHOD FOR TREATING NEUROPATHIC PAIN” (priority 2009, published 2012).

Assays:
[1] = system: complete Freund's adjuvant (CFA)-evoked heat hyperalgesia; assay: CFA-evoked heat hyperalgesia (paw withdrawal latency, Hargreaves); type: in vivo, mice; settings: intrathecal, post-CFA day 3; DHA and EPA 10 μg
Method: (§1) Animals and pain models. Adult CD1 mice (male, 25-32 g) were used for most experiments. Knockout mice were used lacking TNFR1/II (Tnfrsf1a/1b^−/−) and TRPV1 (Trpv1^−/−) and C57BL/6 wild-type control mice, all from Jackson, for some experiments. All animal procedures performed in this study were approved by the Harvard Medical Area Standing Committee on Animals. 20 μl of diluted formalin (5%), carrageenan (CRG, 1%), or complete Freund's adjuvant (CFA) were injected into the plantar surface of a hindpaw to produce acute, persistent, or chronic inflammatory pain, respectively. Postoperative pain was also produced through hindpaw incision^36 and neuropathic pain by ligation of the spinal nerve^37.
Reagents and administration. RvE1 and RvD1 were suspended in 1% or 10% ethanol as vehicle for investigating acute (<1 h) and persistent (1-6 h) effects of resolvins on inflammatory pain. The reagents (10 μl) were delivered to the cerebral spinal fluid via intrathecal injection made by a spinal cord puncture between the L5 and L6 level with a 30G needle^38.
(§2) Behavioral analysis. Mice were habituated in the testing environment for two days and performed behavioral testing in a blinded manner. Formalin-evoked spontaneous inflammatory pain was assessed by measuring duration (seconds) animals spent on licking/flinching the affected paws every 5 min for 45 min. Capsaicin-induced spontaneous pain was aslo assessed for 10 min. For testing mechanical sensitivity, mice were put in boxes on an elevated metal mesh floor and stimulated hindpaw with a series of von Frey hairs with logarithmically incrementing stiffness (0.02-2.56 grams, Stoelting), presented perpendicular to the plantar surface. It was determined the 50% paw withdrawal threshold using Dixon's up-down method^40. For testing heat sensitivity, mice were placed in plastic boxes and tested heat sensitivity using Hargreaves radiant heat apparatus (IITC Life Science Inc.). The basal paw withdrawal latency was adjusted to 9-12 seconds and set a cut-off of 20 seconds to prevent tissue damage. The percent maximal possible antinociceptive effect (% M.P.E) was calculated using the equation % M.P.E.=[(PL−BL2)/(BL1−BL2)]×100. BL1, baseline latency before inflammation; BL2, baseline latency after inflammation but before drug injection; PL, latency post drug injection.
Intrathecal injection. To avoid systemic effects of drugs and target spinal mechanisms, drugs were delivered into cerebral spinal fluid (CSF) space around lumbosacral spinal cord via intrathecal (i.t.) administration. Spinal cord puncture was made with a 30G needle between the L5 and L6 level to deliver the reagents (10 μl) to the cerebral spinal fluid (Hylden and Wilcox, 1980)^5. […] In addition to spinal cord cells, intrathecal drug administration also affects DRG cells^6,7.
The anti-hyperalgesic efficacy of RvE1 prepared in 1% and 10% ethanol was compared on post-CFA day 3.

[2] = system: carrageenan (CRG)-elicited heat hyperalgesia; assay: Carrageenan (CRG)-elicited heat hyperalgesia; type: in vivo, mice; settings: intraplantar pretreatment, 20 ng, 10 min before carrageenan
Method: as §1, §2
Resolvins were also used for intraplantar injection. […]

[3] = system: paw incision-induced postoperative pain; assay: Postoperative pain model induced by hindpaw incision; type: in vivo, mice; settings: intraplantar 20 ng, 10 min before paw incision
Method: as §1
Behavioral analysis. Mice were habituated in the testing environment for two days and performed behavioral testing in a blinded manner. Formalin-evoked spontaneous inflammatory pain was assessed by measuring duration (seconds) animals spent on licking/flinching the affected paws every 5 min for 45 min. Capsaicin-induced spontaneous pain was aslo assessed for 10 min. […] It was determined the 50% paw withdrawal threshold using Dixon's up-down method^40. […] The percent maximal possible antinociceptive effect (% M.P.E) was calculated using the equation % M.P.E.=[(PL−BL2)/(BL1−BL2)]×100. […]

inflammatory pain = assay: Inflammatory pain models induced by formalin or CFA (summary statements); type: in vivo, mouse
Method: as §1, §2

CC/C=C\C[C@H](O)/C=C/C=C\C=C\C=C\[C@@H](O)[C@@H](O)C/C=C\CCC(=O)O [RvD1]
CFA-evoked heat hyperalgesia [1]: Attenuation
CRG-evoked heat hyperalgesia [2]: substantially attenuated
paw incision-induced mechanical allodynia [3]: attenuates the development of paw incision-induced mechanical allodynia
pain-like behaviors (inflammatory pain): potently inhibit
